From patent EP4809830A1, “USE OF 2'-FUCOSYLLACTOSE IN PROMOTING INTESTINAL DEVELOPMENT AND PREVENTING INTESTINAL DAMAGE” (Ausnutria Dairy (China) Co., Ltd., priority 2024, dated 2025)

Legend:
Caco-2 cells [1] = assay: Preventive effects of 2'-FL on glycocalyx damage caused by LPS (qPCR of glycocalyx development genes); format: cell-based, human; settings: for transcriptional level of gpc1: then 100 ng/mL LPS 24 h; for transcriptional level of ext2 / transcriptional level of has2 / transcriptional level of has3 / transcription level of has1 / transcriptional level of ext1: then LPS
Procedure: (§1) Caco-2 cell culture: human colon adenocarcinoma cells Caco-2 were cultured in MEM complete medium containing 20% high-quality fetal bovine serum, grown in 25 cm^2 cell culture flasks and incubated in a carbon dioxide incubator at 37 °C, 5% CO2, and 95% relative humidity. The culture medium was changed every one or two days. When the cells reach 80%-90% confluence, the cells were digested with 0.25% trypsin digestion solution and subcultured at a ratio of 1:3.
(§2) qPCR kit manufacturer: Nanjing Vazyme Biotechnology Co., Ltd.; Catalog number: AceQ Universal U+ Probe Master Mix V2; amplification program: step 1: 37 °C for 2 min, and cycle number 1; step 2: 95 °C for 5 min, and cycle number 1; and step 3: 95 °C for 10 s, 60°C for 30 s, and cycle number 45.
2.1 Experiments: Caco-2 cells were adjusted to a density of 1 × 10^5 cells/cm^2 and inoculated in 24-well plates. According to groups, 2'-FL at concentrations of 0.6 mg/mL, 1.2 mg/mL, and 2.4 mg/mL was added to MEM complete medium, respectively. After incubation for 3 days, culture supernatant was removed, and fresh MEM complete medium with a final concentration of 100 ng/mL LPS was added and they are co-incubated for 24 h. Cells with added LPS but without 2'-FL were designated as a model group, and cells without added LPS or 2'-FL were designated as a blank group. Total RNA was extracted from the cells and reverse transcribed. Transcriptional levels of genes related to glycocalyx development, including glypican 1 (gpc1), hyaluronic acid synthases (has1, has2 and has3), and exostosin glycosyltransferases (ext1 and ext2), in the Caco-2 cells were measured by qPCR.

Caco-2 cells [2] = assay: Effects of 2'-FL on glycocalyx development in intestinal epithelial cells (qPCR of glycocalyx development genes); format: cell-based, human
Procedure: as §1
1.1 Experiments: Caco-2 cells were adjusted to a density of 1 × 10^5 cells/cm^2 and inoculated in 24-well plates. According to groups, 2'-FL at concentrations of 0.6 mg/mL, 1.2 mg/mL, and 2.4 mg/mL was added to MEM complete medium, respectively. After incubation for 3 days, MEM medium was served as a blank control. Total RNA was extracted from the cells and reverse transcribed. Transcriptional levels of genes related to glycocalyx development, including glypican 1 (gpc1), hyaluronic acid synthases (has1, has2 and has3), and exostosin glycosyltransferases (ext1 and ext2) in the Caco-2 cells were measured by qPCR. qPCR primer sequences were shown in Table 1.
as §2

[3] = 2.4 mg/mL 2'-FL, compared to the model group, p < 0.05
[4] = different concentrations of 2'-FL 3 days, compared with the blank group
[5] = prevention group with different concentrations of 2'-FL, vs the blank group, p > 0.05
[6] = summary statement, 0.6mg/mL-1.2 mg/mL
[7] = summary statement, 0.6mg/mL-2.4 mg/mL
[8] = all three concentrations of 2'-FL (0.6, 1.2, 2.4 mg/mL), 3 days, vs blank control, p < 0.05
[9] = of 0.6, 1.2, 2.4 mg/mL tested, effect decreases with increasing concentration

C[C@@H]1O[C@@H](O[C@H]2[C@H](O[C@H]3[C@H](O)[C@@H](O)C(O)O[C@@H]3CO)O[C@H](CO)[C@H](O)[C@@H]2O)[C@@H](O)[C@H](O)[C@@H]1O (stereo partly shown) [2'-FL, 2'-fucosyllactose]
transcriptional level of gpc1 (Caco-2 cells [1]; 0.6 mg/mL 2'-FL 3 days, compared with the blank group): significantly upregulate
transcriptional level of gpc1 (Caco-2 cells [1]; 1.2 mg/mL 2'-FL 3 days, compared with the blank group): significantly upregulate
transcriptional level of ext2 (Caco-2 cells [1]; 1.2 mg/mL 2'-FL, p<0.05): significantly upregulate
transcriptional level of has2 (Caco-2 cells [1]; [3]): significantly upregulated
transcriptional level of has3 (Caco-2 cells [1]; [3]): significantly upregulated
transcription level of has1 (Caco-2 cells [1]; 2.4 mg/mL 2'-FL, compared with the model group): significantly upregulated
transcriptional level of ext2 (Caco-2 cells [1]; 2.4 mg/mL 2'-FL, p<0.05): significantly upregulate
transcriptional level of ext1 (Caco-2 cells [1]; [4]): still upregulated
transcriptional level of ext2 (Caco-2 cells [1]; [4]): still upregulated
transcriptional level of gpc1 (Caco-2 cells [1]; different concentrations of 2'-FL (0.6, 1.2, 2.4 mg/mL) 3 days, compared with the blank group): still upregulated
transcriptional level of has2 (Caco-2 cells [1]; [5]): no significant differences
transcriptional level of has3 (Caco-2 cells [1]; [5]): no significant differences
transcription level of has1 (Caco-2 cells [1]; prevention groups with different concentrations of 2'-FL (0.6, 1.2, 2.4 mg/mL), compared with the blank group, p < 0.05): significantly downregulated
downregulation of the transcriptional level of gpc1 caused by LPS (Caco-2 cells [1]; [6]): significantly prevent downregulation
downregulation of the transcriptional level of ext1 caused by LPS (Caco-2 cells [1]; [7]): significantly prevent downregulation
downregulation of the transcriptional level of ext2 caused by LPS (Caco-2 cells [1]; [7]): significantly prevent downregulation
downregulation of the transcriptional level of has2 caused by LPS (Caco-2 cells [1]; [7]): significantly prevent downregulation
downregulation of the transcriptional level of has3 caused by LPS (Caco-2 cells [1]; [7]): significantly prevent downregulation
transcriptional level of ext1 (Caco-2 cells [1]; three concentrations of 2'-FL (0.6, 1.2, 2.4 mg/mL), p<0.05): significantly upregulate
transcriptional level of ext1 mRNA (Caco-2 cells [2]; [8]): significantly upregulate
transcriptional level of ext2 mRNA (Caco-2 cells [2]; [8]): significantly upregulate
transcriptional level of gpc1 mRNA (Caco-2 cells [2]; [8]): significantly upregulate
transcriptional level of has1 mRNA (Caco-2 cells [2]; [8]): significantly upregulate
transcriptional level of has2 mRNA (Caco-2 cells [2]; [8]): significantly upregulate
transcriptional level of has3 mRNA (Caco-2 cells [2]; [8]): significantly upregulate
concentration at which the upregulation effect on the transcriptional level of ext1 reaches a maximum (Caco-2 cells [2]; [9]): 0.6 mg/mL
concentration at which the upregulation effect on the transcriptional level of ext2 reaches a maximum (Caco-2 cells [2]; [9]): 0.6 mg/mL
concentration at which the upregulation effect on the transcriptional level of has1 reaches a maximum (Caco-2 cells [2]; [9]): 0.6 mg/mL
concentration at which the upregulation effect on the transcriptional level of has2 reaches a maximum (Caco-2 cells [2]; [9]): 0.6 mg/mL
concentration at which the upregulation effect on the transcriptional level of has3 reaches a maximum (Caco-2 cells [2]; [9]): 0.6 mg/mL
concentration at which the upregulation effect on the transcriptional level of gpc1 reaches a maximum (Caco-2 cells [2]; of 0.6, 1.2, 2.4 mg/mL tested, first increasing and then decreasing): 1.2 mg/mL
transcriptional level of ext1 (Caco-2 cells [2]; summary statement, 0.6 mg/mL): significantly upregulate
transcriptional level of ext2 (Caco-2 cells [2]; summary statement, 0.6 mg/mL): significantly upregulate
transcriptional level of has1 (Caco-2 cells [2]; summary statement, 0.6 mg/mL): significantly upregulate
transcriptional level of has2 (Caco-2 cells [2]; summary statement, 0.6 mg/mL): significantly upregulate
transcriptional level of has3 (Caco-2 cells [2]; summary statement, 0.6 mg/mL): significantly upregulate
transcriptional level of gpc1 (Caco-2 cells [2]; [6]): significantly upregulate
